Results taken from the NIST ThermoML archive (doi:10.1021/acs.jced.9b00396).

Details: Liquid; for speed of sound: Frequency=3 MHz, Single path-length method; for mass density: Vibrating tube method

C[S+](C)[O-] [dimethyl sulfoxide]
Details | mass density [kg/m3] | speed of sound [m/s]
293.15 K, 100 kPa | 1100.4 | 1502
293.15 K, 500 kPa | 1100 | –
293.15 K, 1000 kPa | 1101 | –
293.15 K, 2500 kPa | 1102 | –
293.15 K, 5000 kPa | 1103 | –
293.15 K, 7500 kPa | 1104 | –
293.15 K, 10000 kPa | 1106 | –
293.15 K, 12500 kPa | 1107 | –
293.15 K, 15000 kPa | 1108 | –
293.15 K, 17500 kPa | 1110 | –
293.15 K, 20000 kPa | 1111 | –
293.15 K, 22500 kPa | 1112 | –
293.15 K, 25000 kPa | 1114 | –
293.15 K, 27500 kPa | 1115 | –
293.15 K, 30000 kPa | 1116 | –
293.15 K, 32500 kPa | 1117 | –
293.15 K, 35000 kPa | 1119 | –
293.15 K, 37500 kPa | 1120 | –
298.15 K, 100 kPa | 1095.4 | 1485
298.15 K, 500 kPa | 1095 | –
298.15 K, 1000 kPa | 1096 | –
298.15 K, 2500 kPa | 1096 | –
298.15 K, 5000 kPa | 1098 | –
298.15 K, 7500 kPa | 1099 | –
298.15 K, 10000 kPa | 1101 | –
298.15 K, 12500 kPa | 1102 | –
298.15 K, 15000 kPa | 1103 | –
298.15 K, 17500 kPa | 1105 | –
298.15 K, 20000 kPa | 1106 | –
298.15 K, 22500 kPa | 1107 | –
298.15 K, 25000 kPa | 1109 | –
298.15 K, 27500 kPa | 1110 | –
298.15 K, 30000 kPa | 1111 | –
298.15 K, 32500 kPa | 1113 | –
298.15 K, 35000 kPa | 1114 | –
298.15 K, 37500 kPa | 1115 | –
313.15 K, 100 kPa | 1080.3 | 1435
313.15 K, 500 kPa | 1080 | –
313.15 K, 1000 kPa | 1080 | –
313.15 K, 2500 kPa | 1081 | –
313.15 K, 5000 kPa | 1083 | –
313.15 K, 7500 kPa | 1084 | –
313.15 K, 10000 kPa | 1086 | –
313.15 K, 12500 kPa | 1087 | –
313.15 K, 15000 kPa | 1089 | –
313.15 K, 17500 kPa | 1090 | –
313.15 K, 20000 kPa | 1092 | –
313.15 K, 22500 kPa | 1093 | –
313.15 K, 25000 kPa | 1095 | –
313.15 K, 27500 kPa | 1096 | –
313.15 K, 30000 kPa | 1097 | –
313.15 K, 32500 kPa | 1099 | –
313.15 K, 35000 kPa | 1100 | –
313.15 K, 37500 kPa | 1101 | –
333.15 K, 100 kPa | 1060.2 | 1368
333.15 K, 500 kPa | 1060 | –
333.15 K, 1000 kPa | 1060 | –
333.15 K, 2500 kPa | 1061 | –
333.15 K, 5000 kPa | 1063 | –
333.15 K, 7500 kPa | 1065 | –
333.15 K, 10000 kPa | 1066 | –
333.15 K, 12500 kPa | 1068 | –
333.15 K, 15000 kPa | 1070 | –
333.15 K, 17500 kPa | 1071 | –
333.15 K, 20000 kPa | 1073 | –
333.15 K, 22500 kPa | 1074 | –
333.15 K, 25000 kPa | 1076 | –
333.15 K, 27500 kPa | 1077 | –
333.15 K, 30000 kPa | 1079 | –
333.15 K, 32500 kPa | 1080 | –
333.15 K, 35000 kPa | 1082 | –
333.15 K, 37500 kPa | 1083 | –
353.15 K, 500 kPa | 1040 | –
353.15 K, 1000 kPa | 1040 | –
353.15 K, 2500 kPa | 1042 | –
353.15 K, 5000 kPa | 1043 | –
353.15 K, 7500 kPa | 1045 | –
353.15 K, 10000 kPa | 1047 | –
353.15 K, 12500 kPa | 1049 | –
353.15 K, 15000 kPa | 1050 | –
353.15 K, 17500 kPa | 1052 | –
353.15 K, 20000 kPa | 1054 | –
353.15 K, 22500 kPa | 1055 | –
353.15 K, 25000 kPa | 1057 | –
353.15 K, 27500 kPa | 1059 | –
353.15 K, 30000 kPa | 1060 | –
353.15 K, 32500 kPa | 1062 | –
353.15 K, 35000 kPa | 1063 | –
353.15 K, 37500 kPa | 1065 | –
373.15 K, 500 kPa | 1020 | –
373.15 K, 1000 kPa | 1020 | –
373.15 K, 2500 kPa | 1022 | –
373.15 K, 5000 kPa | 1024 | –
373.15 K, 7500 kPa | 1026 | –
373.15 K, 10000 kPa | 1027 | –
373.15 K, 12500 kPa | 1029 | –
373.15 K, 15000 kPa | 1031 | –
373.15 K, 17500 kPa | 1033 | –
373.15 K, 20000 kPa | 1035 | –
373.15 K, 22500 kPa | 1037 | –
373.15 K, 25000 kPa | 1038 | –
373.15 K, 27500 kPa | 1040 | –
373.15 K, 30000 kPa | 1042 | –
373.15 K, 32500 kPa | 1044 | –
373.15 K, 35000 kPa | 1045 | –
373.15 K, 37500 kPa | 1047 | –
393.15 K, 500 kPa | 999 | –
393.15 K, 1000 kPa | 1000 | –
393.15 K, 2500 kPa | 1001 | –
393.15 K, 5000 kPa | 1004 | –
393.15 K, 7500 kPa | 1006 | –
393.15 K, 10000 kPa | 1008 | –
393.15 K, 12500 kPa | 1010 | –
393.15 K, 15000 kPa | 1012 | –
393.15 K, 17500 kPa | 1014 | –
393.15 K, 20000 kPa | 1016 | –
393.15 K, 22500 kPa | 1018 | –
393.15 K, 25000 kPa | 1020 | –
393.15 K, 27500 kPa | 1022 | –
393.15 K, 30000 kPa | 1024 | –
393.15 K, 32500 kPa | 1025 | –
393.15 K, 35000 kPa | 1027 | –
393.15 K, 37500 kPa | 1029 | –
413.15 K, 500 kPa | 979 | –
413.15 K, 1000 kPa | 979 | –
413.15 K, 2500 kPa | 981 | –
413.15 K, 5000 kPa | 983 | –
413.15 K, 7500 kPa | 986 | –
413.15 K, 10000 kPa | 988 | –
413.15 K, 12500 kPa | 990 | –
413.15 K, 15000 kPa | 993 | –
413.15 K, 17500 kPa | 995 | –
413.15 K, 20000 kPa | 997 | –
413.15 K, 22500 kPa | 999 | –
413.15 K, 25000 kPa | 1001 | –
413.15 K, 27500 kPa | 1003 | –
413.15 K, 30000 kPa | 1005 | –
413.15 K, 32500 kPa | 1007 | –
413.15 K, 35000 kPa | 1009 | –
413.15 K, 37500 kPa | 1011 | –
433.15 K, 500 kPa | 958 | –
433.15 K, 1000 kPa | 958 | –
433.15 K, 2500 kPa | 960 | –
433.15 K, 5000 kPa | 963 | –
433.15 K, 7500 kPa | 966 | –
433.15 K, 10000 kPa | 968 | –
433.15 K, 12500 kPa | 971 | –
433.15 K, 15000 kPa | 973 | –
433.15 K, 17500 kPa | 976 | –
433.15 K, 20000 kPa | 978 | –
433.15 K, 22500 kPa | 980 | –
433.15 K, 25000 kPa | 983 | –
433.15 K, 27500 kPa | 985 | –
433.15 K, 30000 kPa | 987 | –
433.15 K, 32500 kPa | 989 | –
433.15 K, 35000 kPa | 991 | –
433.15 K, 37500 kPa | 993 | –
453.15 K, 500 kPa | 936 | –
453.15 K, 1000 kPa | 937 | –
453.15 K, 2500 kPa | 939 | –
453.15 K, 5000 kPa | 942 | –
453.15 K, 7500 kPa | 945 | –
453.15 K, 10000 kPa | 948 | –
453.15 K, 12500 kPa | 951 | –
453.15 K, 15000 kPa | 953 | –
453.15 K, 17500 kPa | 956 | –
453.15 K, 20000 kPa | 959 | –
453.15 K, 22500 kPa | 961 | –
453.15 K, 25000 kPa | 964 | –
453.15 K, 27500 kPa | 966 | –
453.15 K, 30000 kPa | 969 | –
453.15 K, 32500 kPa | 971 | –
453.15 K, 35000 kPa | 973 | –
453.15 K, 37500 kPa | 976 | –
473.15 K, 500 kPa | 914 | –
473.15 K, 1000 kPa | 915 | –
473.15 K, 2500 kPa | 917 | –
473.15 K, 5000 kPa | 921 | –
473.15 K, 7500 kPa | 924 | –
473.15 K, 10000 kPa | 927 | –
473.15 K, 12500 kPa | 930 | –
473.15 K, 15000 kPa | 933 | –
473.15 K, 17500 kPa | 936 | –
473.15 K, 20000 kPa | 939 | –
473.15 K, 22500 kPa | 942 | –
473.15 K, 25000 kPa | 945 | –
473.15 K, 27500 kPa | 948 | –
473.15 K, 30000 kPa | 950 | –
473.15 K, 32500 kPa | 953 | –
473.15 K, 35000 kPa | 955 | –
473.15 K, 37500 kPa | 958 | –
